Where two headings read alike, the source gives them in different places.

For series [1], the system named is 4T1 TNBC. The series is described as follows: 4T1 TNBC orthotopic tumor model (tumor volume, survival). Format: in vivo, mice (BALB/c). As for the experimental part: Tumor Model. Animal protocols were approved by the University of Colorado Health Sciences Center Animal Care and Use Committee. Female BALB/c mice, 6-8 weeks old (The Jackson Laboratory), were fed standard or dapansutrile (OLT1177®) diet (4), which was started on the day of 4T1 injection. 4T1 cells (2×10^5) were injected orthotopically into the mammary fat pad. Mice treated with dapansutrile were fed ad libidum with food pellets containing 7.5 g/kg dapansutrile, which started on the day of the 4T1 injection and continued for 15 days. Mice typically consume about 4 g of food per day, resulting in an approximate daily dose of 0 mg/kg/day for control groups and 1,000 mg/kg/day for the treatment groups. […] Control (“vehicle”) mice were fed with control food pellets without dapansutrile. Mice were sacrificed following 15 days after 4T1 injection.
Anti-PD-1 Combination Therapy. 4T1 cells were injected as described. After instillation of 4T1 cells, mice were started on dapansutrile (OLT1177®) diet or continued on standard diet as described and at day seven a neutralizing antibody against PD-1 (200 μg/mouse; BioXCell, West Lebanon, NH) was injected peritoneally. Mice were sacrificed following 15 days from the […] instillation.
Anti-IL-1α Combination Therapy. 4T1 cells were injected as described. After instillation of 4T1 cells, mice were started on dapansutrile (OLT1177®) diet or continued on standard diet as described and every three days a neutralizing antibody against anti-IL-1α (200 μg/mouse; XBioTech, Austin, TX) was injected peritoneally. Mice were sacrificed following 15 days from the […] instillation.
4T1 TNBC mice were generated and fed a standard diet or a dapansutrile diet for 15 days. Tumors were measured on indicated days to generate a growth curve (FIG. 1C). Final tumor volume was taken following resection of the tumors (FIG. 1B).
To further assess the roles of IL-1α and IL-1β in driving 4T1 tumor progression, inventors treated mice with anti-IL-1α (200 μg/mouse), dapansutrile diet, and a combination of both. 4T1 TNBC mice were generated and fed a standard diet or a dapansutrile diet for 15 days. Mice were injected with anti-IL1α every 3 days as indicated. Subsequently, tumor volume was analyzed.
4T1 TNBC mice were generated and fed a standard diet or a dapansutrile diet for 15 days. Mice receiving a combination therapy were injected with anti-PD-1 on day 7 as indicated (FIG. 3A).

Series [2] relates to TSLP. The series is described as follows: Gene expression (qPCR) in primary 4T1 tumors: TSLP. Format: in vivo, mice. The conditions noted are these: dapansutrile diet vs vehicle (FIG. 2D). How it is done:
(§1) Gene Expression. RNA was then isolated using Trizol (Thermo Fisher Scientific) and synthesized in cDNA using SuperScript III First-Strand (Thermo Fisher Scientific). Quantitative PCR (qPCR) was performed on cDNA using Power SYBR Green PCR master mix (Thermo Fisher Scientific) on Biorad CFX96 Real time system. Gene expression was assessed for Tslp, Tslpr, and Pdcd-11L1 mRNAs as indicated using the following primers: […]
(§2) Tumor Model. Animal protocols were approved by the University of Colorado Health Sciences Center Animal Care and Use Committee. Female BALB/c mice, 6-8 weeks old (The Jackson Laboratory), were fed standard or dapansutrile (OLT1177®) diet (4), which was started on the day of 4T1 injection. 4T1 cells (2×10^5) were injected orthotopically into the mammary fat pad. […]
(§3) Previous studies on the tumor-myeloid cell interactions in triple-negative breast cancer indicate that tumor-derived IL-1α promotes infiltrating myeloid cells to secrete TSLP (thymic stromal lymphopoietin), which in turn is critical for tumor progression at both primary and distant metastatic sites (15). To further evaluate the effects of blocking NLRP3 in 4T1 tumor progression, inventors quantified gene expression of TSLP and its associated receptor TSLPR in primary 4T1 tumors as measured by relative mRNA expression. […]
On the technique in general: Quantitative PCR measures a nucleic acid by following its amplification.

In series [3] the test system is TSLPR. The series is described as follows: Gene expression (qPCR) in primary 4T1 tumors: TSLPR. Format: in vivo, mice. The conditions noted are these: dapansutrile diet vs vehicle (FIG. 2E). As for the experimental part:
as §1, §2, §3

Series [4] deals with TSLP. The series is described as follows: TSLP mRNA expression in IL-1α-stimulated MDA-468 cells. The conditions noted are these: IL-1α 20 ng/mL, dapansutrile 10 μM, 24 hours, vs control (FIG. 2F). It is filed as cell-based, human. How it is done:
(§4) Cell Lines. The mammary carcinoma cell lines 4T1, E0771, and MDA-468 were obtained from ATCC (Manassas, VA). Cells were cultured in DMEM supplemented with 10% FBS, 100 units/mL penicillin, 0.1 mg/ml streptomycin. Cells were maintained in a humidified 5% CO2 atmosphere at 37° C.
(§5) In vitro. Tumor cell lines were adhered overnight at a concentration of 200,000 per well. The following day human recombinant IL-1α or IL-1β (R&D Systems, Minneapolis, MN) were added with or without dapansutrile (OLT1177®) and incubated for 24 hours. Cells were then lysed using TRIzol reagent (Thermo Fisher Scientific, Waltham, MA).
(§6) Gene Expression. […] Quantitative PCR (qPCR) was performed on cDNA using Power SYBR Green PCR master mix (Thermo Fisher Scientific) on Biorad CFX96 Real time system. Gene expression was assessed for Tslp, Tslpr, and Pdcd-11L1 mRNAs as indicated using the following primers: […]
as §3

For series [5], the system named is TSLPR. The series is described as follows: TSLPR mRNA expression in IL-1α-stimulated MDA-468 cells. The conditions noted are these: IL-1α 20 ng/mL, dapansutrile 10 μM, 24 hours, vs control (FIG. 2G). Format: cell-based, human. How it is done: as §4, §5, §6, §3
The test system of series [6] is PD-L1. The series is described as follows: Gene expression (qPCR) in 4T1 tumors: PD-L1. Format: in vivo, mice. As to conditions: dapansutrile diet vs standard diet (FIG. 3D). How it is done:
as §1
Tumor Model. Animal protocols were approved by the University of Colorado Health Sciences Center Animal Care and Use Committee. Female BALB/c mice, 6-8 weeks old (The Jackson Laboratory), were fed standard or dapansutrile (OLT1177®) diet (4), which was started on the day of 4T1 injection. 4T1 cells (2×10^5) were injected orthotopically into the mammary fat pad. Mice treated with dapansutrile were fed ad libidum with food pellets containing 7.5 g/kg dapansutrile, which started on the day of the 4T1 injection and continued for 15 days. Mice typically consume about 4 g of food per day, resulting in an approximate daily dose of 0 mg/kg/day for control groups and 1,000 mg/kg/day for the treatment groups. […] Control (“vehicle”) mice were fed with control food pellets without dapansutrile. Mice were sacrificed following 15 days after 4T1 injection. […]

Series [7] deals with PD-L1. The series is described as follows: PD-L1 mRNA expression in IL-1α-stimulated E0771 cells. Format: cell-based, murine. The conditions noted are these: IL-1α 10 ng/mL, dapansutrile vs vehicle (FIG. 3E). As for the experimental part:
as §4, §5, §1
In vitro analysis of the murine triple-negative breast cancer cell line E0771 was conducted to examine the effects of dapansutrile on PD-L1 expression levels following cell death signaling. IL-1α stimulation was used to simulate cell death signaling in the tumor-microenvironment. […]

The test system of series [8] is IL-22. The series is described as follows: Splenocyte cytokine secretion (ELISA): IL-22. Format: in vivo. As to conditions: splenocytes of 4T1 tumor-bearing mice, LPS 10 μg/mL, 72 hours, vs vehicle (FIG. 4B). How it is done:
(§7) Splenocyte Cytokine Secretion. 4T1 cells were injected as described. Spleens from tumor-bearing mice were processed for cell culture through mechanical dissociation. Cells suspended in RPMI supplemented with 10% FBS, 100 units/mL penicillin, 0.1 mg/ml streptomycin and were plated at 5.0e^5 and stimulated with 10 μg/mL LPS. After 72 hours, supernatants were removed and cytokines were measured via ELISA (R&D Systems, Minneapolis, MN).
(§8) In this Example, 4T1 TNBC mice were generated and fed a standard diet or a dapansutrile diet for 15 days.

Series [9] has as its system IFNγ. The series is described as follows: Splenocyte cytokine secretion (ELISA): IFNγ. As to conditions: splenocytes of 4T1 tumor-bearing mice, LPS 10 μg/mL, 72 hours, vs vehicle (FIG. 4C). It is filed as in vivo. As for the experimental part:
as §7, §8
In general terms: In an ELISA, binding on a coated surface is turned into a signal by an enzyme label.

The conditions of series [10]: humans treated orally at 1000 mg/day; cited from earlier work.
The conditions of series [11]: mice, 7.5 g/kg dapansutrile in food (about 1,000 mg/kg/day); nearly the same as human level; cited from earlier work.
The conditions of series [12]: orally administered to healthy subjects; cited from earlier work.
The target in series [13] is NLRP3 inflammasome (Homo sapiens, UniProt Q96P20). The conditions noted are these: cited from earlier work.
Sequence of NLRP3 inflammasome (Q96P20 whole entry): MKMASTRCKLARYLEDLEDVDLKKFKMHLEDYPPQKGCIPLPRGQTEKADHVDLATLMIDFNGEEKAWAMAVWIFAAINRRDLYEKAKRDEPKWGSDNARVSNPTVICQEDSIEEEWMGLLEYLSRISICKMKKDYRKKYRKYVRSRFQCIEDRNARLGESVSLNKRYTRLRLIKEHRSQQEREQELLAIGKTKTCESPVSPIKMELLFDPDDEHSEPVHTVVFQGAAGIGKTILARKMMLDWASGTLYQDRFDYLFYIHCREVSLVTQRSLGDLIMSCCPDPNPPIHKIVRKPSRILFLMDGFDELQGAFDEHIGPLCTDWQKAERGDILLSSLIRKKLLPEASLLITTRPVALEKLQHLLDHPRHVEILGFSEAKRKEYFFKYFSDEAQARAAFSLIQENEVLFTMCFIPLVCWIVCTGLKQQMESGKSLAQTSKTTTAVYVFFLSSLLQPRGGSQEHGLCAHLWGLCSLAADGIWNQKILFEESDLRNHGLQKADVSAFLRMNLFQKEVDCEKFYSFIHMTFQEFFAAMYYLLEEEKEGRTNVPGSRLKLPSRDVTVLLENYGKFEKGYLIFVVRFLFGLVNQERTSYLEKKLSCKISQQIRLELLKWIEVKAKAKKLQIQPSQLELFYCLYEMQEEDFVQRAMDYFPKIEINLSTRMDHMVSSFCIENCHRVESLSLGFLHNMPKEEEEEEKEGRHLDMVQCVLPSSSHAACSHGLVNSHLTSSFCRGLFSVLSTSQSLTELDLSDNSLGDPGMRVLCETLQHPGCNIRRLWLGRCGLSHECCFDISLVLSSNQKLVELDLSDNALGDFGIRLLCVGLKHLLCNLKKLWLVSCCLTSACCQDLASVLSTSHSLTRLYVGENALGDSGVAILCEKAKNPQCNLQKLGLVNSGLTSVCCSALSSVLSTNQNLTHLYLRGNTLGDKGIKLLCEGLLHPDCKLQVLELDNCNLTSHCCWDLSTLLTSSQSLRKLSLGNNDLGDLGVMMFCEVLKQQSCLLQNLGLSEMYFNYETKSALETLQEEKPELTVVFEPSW

Turning to `CS(=O)(=O)CCC#N` [dapansutrile, 3-methanesulfonyl-propionitrile], the “mice surviving beyond 30 days” value in series [1] (Example 1, 4T1 TNBC mice on dapansutrile diet) is recorded as “half”. Moreover, the tumor volume entry was “significantly decreased tumor volume” in series [1] (Example 1, 4T1 TNBC mice, dapansutrile diet 15 days vs standard diet, after resection (FIG. 1B)) and “significant tumor reduction” in series [1] (Example 3, 4T1 TNBC mice, day 15 after resection, dapansutrile diet and/or anti-PD-1 200 μg/mouse on day 7, vs vehicle (FIG. 3B)). Also, the survival rates result in [1] (Example 1, 4T1 TNBC mice, dapansutrile diet vs standard diet (FIG. 1D, n=10)) was “significantly higher survival rates”. Further, the tumor volumes result in series [1] (Example 2, 4T1 TNBC mice, 15 days, dapansutrile diet and/or anti-IL-1α 200 μg/mouse every 3 days, vs vehicle (FIGS. 2B, 2C)) was “significantly reduced tumor volumes”. Further, the “TSLP expression (relative mRNA)” value in [2] and in series [4] was “significantly lower” in each case. Further, the “TSLPR expression (relative mRNA)” value in series [3] and in series [5] was “significantly lower” in each case. The “PD-L1 gene expression (relative mRNA)” value in [6] is on record as “significantly less”. In addition, the “PD-L1 expression (relative mRNA)” value in series [7] is “markedly lower”. Besides, the IL-22 levels entry in series [8] was “significantly reduced IL-22 levels”. The IFNγ levels entry in series [9] is “increased”. In addition, the figures for the blood level in [10] and in series [11] were 40000 ng/mL and roughly 40000 ng/mL, respectively. The safety entry in series [12] was “safe”. Further, in series [13], the NLRP3 inflammasome inhibition result is “selectively inhibit”.

These data come from patent US12582628B2, “Methods for treating breast cancer” (Olatec Therapeutics, Inc., priority 2019, dated 2026).
